“And” between values parts separate entries of the source, which are not always exact repeats. Identical values can stand only once. Toxic doses and inconclusive results are not listed. No stated cut-off is given here; in the data, active means T/C of 150% or more; inactive means T/C below 125%. Peptide text beside a SMILES is read from it. * marks the point of attachment. Cbz = O=C(OCc1ccccc1)*
Test system: L1210 leukemia ip in BDF1 mice, survival T/C
Assay: NCI In Vivo Anticancer Drug Screen. Data for tumor model L1210 Leukemia (intraperitoneal) in B6D2F1 (BDF1) mice
Settings: endpoint: mean survival time, higher = longer survival
Procedure, shortened: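 Read-out is survival time, reported as the treated-group measurement over the vehicle-control measurement.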

[1] = dose: 100.0 mg/kg/injection, schedule: Q01DX001 (ip), vehicle: Klucel (hydroxypropylcellulose) (HPC)
[2] = dose: 100.0 mg/kg/injection, schedule: Q01DX009 (ip), vehicle: Klucel (hydroxypropylcellulose) (HPC)
[3] = dose: 200.0 mg/kg/injection, schedule: Q01DX001 (ip), vehicle: Klucel (hydroxypropylcellulose) (HPC)
[4] = dose: 200.0 mg/kg/injection, schedule: Q01DX009 (ip), vehicle: Klucel (hydroxypropylcellulose) (HPC)
[5] = dose: 400.0 mg/kg/injection, schedule: Q01DX001 (ip), vehicle: Klucel (hydroxypropylcellulose) (HPC)
[6] = dose: 400.0 mg/kg/injection, schedule: Q01DX009 (ip), vehicle: Klucel (hydroxypropylcellulose) (HPC)
[7] = dose: 100.0 mg/kg/injection, schedule: Q01DX001 (ip), vehicle: saline with Tween-80
[8] = dose: 200.0 mg/kg/injection, schedule: Q01DX001 (ip), vehicle: saline with Tween-80
[9] = dose: 400.0 mg/kg/injection, schedule: Q01DX001 (ip), vehicle: saline with Tween-80
[10] = dose: 100.0 mg/kg/injection, schedule: Q04DX003 (ip), vehicle: saline with Tween-80
[11] = dose: 200.0 mg/kg/injection, schedule: Q04DX003 (ip), vehicle: saline with Tween-80
[12] = dose: 400.0 mg/kg/injection, schedule: Q04DX003 (ip), vehicle: saline with Tween-80
[13] = dose: 100.0 mg/kg/injection, schedule: Q04DX003 (ip), vehicle: Klucel (hydroxypropylcellulose) (HPC)
[14] = dose: 200.0 mg/kg/injection, schedule: Q04DX003 (ip), vehicle: Klucel (hydroxypropylcellulose) (HPC)
[15] = dose: 400.0 mg/kg/injection, schedule: Q04DX003 (ip), vehicle: Klucel (hydroxypropylcellulose) (HPC)
[16] = dose: 100.0 mg/kg/injection, schedule: Q01DX001 (ip), vehicle: saline
[17] = dose: 200.0 mg/kg/injection, schedule: Q01DX001 (ip), vehicle: saline
[18] = dose: 400.0 mg/kg/injection, schedule: Q01DX001 (ip), vehicle: saline
[19] = dose: 100.0 mg/kg/injection, schedule: Q04DX003 (ip), vehicle: saline

Measured: T/C

COc1cc(CCCC(=O)O)c(OC)c(C)c1C
inactive: [1] 93 % of control | [2] 97 % of control | [3] 98 % of control | [4] 103 % of control | [5] 95 % of control | [6] 101 % of control

CNC(=O)C(CCC(=O)OC)NS(=O)(=O)c1ccc(C)cc1 (stereo unspecified)
inactive: [7] 100 % of control | dose: 100.0 mg/kg/injection, schedule: Q01DX009 (ip), vehicle: saline with Tween-80 104 % of control | [8] 100 % of control | dose: 200.0 mg/kg/injection, schedule: Q01DX009 (ip), vehicle: saline with Tween-80 96 % of control | [9] 100 % of control | dose: 400.0 mg/kg/injection, schedule: Q01DX009 (ip), vehicle: saline with Tween-80 104 % of control

CN(C)C(SCc1c(Cl)c(Cl)c(Cl)c(Cl)c1Cl)=[N+](C)C
inactive: dose: 3.0 mg/kg/injection, schedule: Q04DX002 (ip), vehicle: saline 101 % of control | dose: 6.0 mg/kg/injection, schedule: Q04DX002 (ip), vehicle: saline 93 % of control | dose: 12.0 mg/kg/injection, schedule: Q04DX002 (ip), vehicle: saline 104 % of control

NC(CSC1c2ccccc2-c2ccccc21)C(=O)O (stereo unspecified)
inactive: dose: 75.0 mg/kg/injection, schedule: Q01DX001 (ip), vehicle: carboxymethylcellulose (CMC) 96 % of control | dose: 150.0 mg/kg/injection, schedule: Q01DX001 (ip), vehicle: carboxymethylcellulose (CMC) 98 % of control | dose: 300.0 mg/kg/injection, schedule: Q01DX001 (ip), vehicle: carboxymethylcellulose (CMC) 101 % of control

O=C(CC(NC(=O)OCc1ccccc1)C(=O)OCc1ccccc1)OCc1ccccc1 (stereo unspecified)
inactive: [4] 88 % of control | [6] 89 % of control

COC(=O)c1nc(C(=O)OC)c(C(=O)OC)nc1C(=O)OC
inactive: [10] 88 % of control | [11] 93 % of control | [12] 102 % of control

O=C1c2ccccc2C(=O)N1C1C=CC=CC=C1
inactive: [1] 95 % of control | [13] 91 % of control | [3] 93 % of control | [14] 91 % of control | [5] 90 % of control | [15] 93 % of control

O=C1c2ccccc2-c2cc3ccccc3cc21
inactive: [16] 100 % of control | [2] 92 % of control | [13] 108 % of control | [17] 101 % of control | [4] 92 % of control | [14] 108 % of control | [18] 103 % of control | [6] 90 % of control | [15] 110 % of control

CC1CCC2(C)CCC(C(C)C)C2(O)CC1 (stereo unspecified)
inactive: dose: 50.0 mg/kg/injection, schedule: Q01DX009 (ip), vehicle: saline sonified 90 % of control | dose: 100.0 mg/kg/injection, schedule: Q01DX009 (ip), vehicle: saline sonified 97 % of control | dose: 100.0 mg/kg/injection, schedule: Q04DX003 (ip), vehicle: saline sonified 107 % of control | dose: 200.0 mg/kg/injection, schedule: Q01DX009 (ip), vehicle: saline sonified 92 % of control | dose: 200.0 mg/kg/injection, schedule: Q04DX003 (ip), vehicle: saline sonified 100 % of control

CCN(CC)CCN1CC(=O)Nc2cc(Cl)ccc21
inactive: dose: 25.0 mg/kg/injection, schedule: Q04DX003 (ip), vehicle: saline 94 % of control | dose: 50.0 mg/kg/injection, schedule: Q04DX003 (ip), vehicle: saline 99 % of control | [19] 98 % of control and 87 % of control

O=C(COc1cccc(Cl)c1)Nc1cccnc1
inactive: dose: 12.0 mg/kg/injection, schedule: Q01DX009 (ip), vehicle: Klucel (hydroxypropylcellulose) (HPC) 89 % of control | dose: 25.0 mg/kg/injection, schedule: Q01DX009 (ip), vehicle: Klucel (hydroxypropylcellulose) (HPC) 98 % of control | dose: 50.0 mg/kg/injection, schedule: Q01DX009 (ip), vehicle: Klucel (hydroxypropylcellulose) (HPC) 92 % of control | [13] 93 % of control | [14] 103 % of control | [6] 87 % of control

CC(C#N)OC(=O)c1ccccc1 (stereo unspecified)
inactive: dose: 8.75 mg/kg/injection, schedule: Q01DX009 (ip), vehicle: acetone 96 % of control | dose: 12.5 mg/kg/injection, schedule: Q01DX001 (ip), vehicle: saline 100 % of control | dose: 17.5 mg/kg/injection, schedule: Q01DX009 (ip), vehicle: acetone 95 % of control | dose: 25.0 mg/kg/injection, schedule: Q01DX001 (ip), vehicle: saline 105 % of control | dose: 35.0 mg/kg/injection, schedule: Q01DX009 (ip), vehicle: acetone 91 % of control | dose: 35.0 mg/kg/injection, schedule: Q04DX003 (ip), vehicle: saline 95 % of control | dose: 50.0 mg/kg/injection, schedule: Q01DX009 (ip), vehicle: acetone 94 % of control

CC1CC(=O)NN1C(=S)Nc1ccccc1 (stereo unspecified)
inactive: [10] 102 % of control | [11] 98 % of control | [12] 100 % of control

O=C(Nc1ccc(S(=O)(=O)NC2CCCCC2)cc1)Oc1ccccc1C(=O)O
inactive: [16] 100 % of control | [17] 91 % of control | [18] 100 % of control

Cc1ccc(O)c(CCCC(=O)O)c1
inactive: dose: 100.0 mg/kg/injection, schedule: Q01DX009 (ip), vehicle: alcohol 100 % of control | dose: 200.0 mg/kg/injection, schedule: Q01DX009 (ip), vehicle: alcohol 101 % of control | dose: 400.0 mg/kg/injection, schedule: Q01DX009 (ip), vehicle: alcohol 98 % of control

O=C1c2cc([N+](=O)[O-])ccc2CCC1C(O)(C(F)(F)F)C(F)(F)F (stereo unspecified)
inactive: [7] 100 % of control | [8] 102 % of control | [9] 100 % of control

CC[n+]1cn(-c2ccc(S(=O)(=O)[O-])cc2)nn1
inactive: [16] 101 % of control | [17] 110 % of control

COC(=O)CNC(=O)CNC(=O)OCc1ccccc1 (Cbz-Gly-Gly-OMe)
inactive: dose: 100.0 mg/kg/injection, schedule: Q01DX009 (ip), vehicle: saline 102 % of control | [19] 102 % of control | dose: 200.0 mg/kg/injection, schedule: Q01DX009 (ip), vehicle: saline 100 % of control | dose: 200.0 mg/kg/injection, schedule: Q04DX003 (ip), vehicle: saline 98 % of control | dose: 400.0 mg/kg/injection, schedule: Q01DX009 (ip), vehicle: saline 102 % of control | dose: 400.0 mg/kg/injection, schedule: Q04DX003 (ip), vehicle: saline 107 % of control

O=C1OC(c2cccc(Cl)c2)=N/C1=C\c1ccccc1O
inactive: [2] 94 % of control | [6] 94 % of control

Source: PubChem BioAssay AID248 (DTP/NCI, 2004)
